One series deals with bacteria. Put plainly: Neutralization of biocides - H2O2 and NH4Cl. It is filed as cell-based. As to conditions: for microbial growth: after 14 days, 1, 10 or 100 ppm glutaraldehyde mixed with five times molar excess of the agent; for neutralizing biocides (glutaraldehyde): five times molar excess over 1, 10 or 100 ppm glutaraldehyde. On the procedure:
In this experiment, minimal medium containing 1, 10 or 100 ppm of glutaraldehyde was mixed with a five times molar excess of H2O2 or NH4Cl. Hydrocarbonaceous product and bacteria were then added to the mixture.

Series [1] relates to bacterial inoculum. The format is cell-based. As to conditions: for Growth, nitrogen compound control: control without glutaraldehyde; for Growth, nitrogen compound control / Growth, Neutralization of Biocides with Nitrogen Compounds: n-C16; for Growth, Neutralization of Biocides with Nitrogen Compounds: with 10 ppm glutaraldehyde, two moles nitrogen compound per glutaraldehyde; for neutralizing 10 ppm of glutaraldehyde: two moles per glutaraldehyde. An excerpt: The different nitrogen-containing compounds evaluated include the following: […]

The test system of series [2] is Larval Sheepshead Minnow (Cyprinodon variegatus). Nature of the series: in vivo. As to conditions: Cyprinodon variegatus (sheepshead minnow), 96 h. On the procedure: (§1) […]. EPA/600/4-90/027F Washington, D.C.) conducted at Pacific Eco-Risk Laboratories, Martinez, Calif.
(§2) LOEC is the Lowest Observable Effect Concentration and is defined as the minimum concentration where mortality is observed for the test species. […] LC-50, the concentration that will cause mortality of 50% of the organisms tested within 96 h, is a calculated value based on all observations.
(§3) The solutions were mixed for 48 hours prior to the start of the bioassays. The solutions were diluted to perform bioassays at starting glutaraldehyde concentrations of 100, 50, 37.5, 25, and 10.5 mg/L. The results are summarized in Table X.

A further series in a line: in vivo. As to conditions: Cyprinodon variegatus (sheepshead minnow, larval), 96 h, control experiment, separate compounds. How it is done:
as §1, §2, §3

The test system of series [3] is bacterial inoculum. Nature of the series: Evaluation of biocides: inhibition of growth on FT diesel and ALAD diesel. Further: key: −: No Growth; +: Growth (White Unless Otherwise Indicated). It is filed as cell-based, alkane degrading organisms. On the procedure:
The ability of biocides to inhibit growth on a FT diesel and a low aromatics diesel fuel from Example 1 was investigated.
Test Conditions: 90 ml of growth media and 10 ml of either FT diesel or low sulfur (ALAD) diesel was added to 250 ml flasks. […] In addition to the 2 alkynes, glutaraldehyde (glutaric dialdehyde 50%), was tested. The following summarizes the test conditions:
100 ppm inhibitor (on a total test volume basis or 1000 ppm in diesel)
1% inhibitor (on a total test volume basis or 10% in diesel).
After inoculation, the flasks were place on a shaker-table (135 rpm) at room temperature and observed daily.

Where [4] appears, read: FT Diesel + 1 Wt % biocide, Day 0.
The mark [5] stands for this setting: FT Diesel + 1 Wt % biocide, Day 1.
[6] abbreviates: FT Diesel + 1 Wt % biocide, Day 5.
The mark [7] stands for this setting: FT Diesel + 1 Wt % biocide, Day 7.
Setting [8] is: FT Diesel + 1 Wt % biocide, Day 8.
The mark [9] stands for this setting: FT Diesel + 1 Wt % biocide, Day 19.
[10] abbreviates: FT Diesel + 100 ppm biocide, Day 0.
The mark [11] stands for this setting: FT Diesel + 100 ppm biocide, Day 1.
The mark [12] stands for this setting: FT Diesel + 100 ppm biocide, Day 5.
The mark [13] stands for this setting: FT Diesel + 100 ppm biocide, Day 7.
Setting [14] is: FT Diesel + 100 ppm biocide, Day 8.
Setting [15] is: FT Diesel + 100 ppm biocide, Day 19.
The mark [16] stands for this setting: LA Diesel + 1 Wt % biocide, Day 0.
Setting [17] is: LA Diesel + 1 Wt % biocide, Day 1.
The mark [18] stands for this setting: LA Diesel + 1 Wt % biocide, Day 5.
Where [19] appears, read: LA Diesel + 1 Wt % biocide, Day 7.
Setting [20] is: LA Diesel + 1 Wt % biocide, Day 8.
Where [21] appears, read: LA Diesel + 1 Wt % biocide, Day 19.
[22] abbreviates: LA Diesel + 100 ppm biocide, Day 0.
Setting [23] is: LA Diesel + 100 ppm biocide, Day 1.
Where [24] appears, read: LA Diesel + 100 ppm biocide, Day 5.
[25] abbreviates: LA Diesel + 100 ppm biocide, Day 7.
[26] abbreviates: LA Diesel + 100 ppm biocide, Day 8.
Where [27] appears, read: LA Diesel + 100 ppm biocide, Day 19.

Values after ≈ are worked out from the molar mass of the structure shown. Where two headings read alike, the source gives them in different places.

On to `Cl.N` [NH4Cl], for which, in the series with bacteria, the microbial growth entry was “no growth” and the “neutralizing biocides (glutaraldehyde)” value was “not effective”.

For the compound `Nc1ccccc1` [aniline, Aniline], the “toxicity of the nitrogen-containing compound itself (microbial growth)” value with bacterial inoculum [1] is listed as “excessively toxic”. Moreover, the “Growth, nitrogen compound control” value with bacterial inoculum [1] (Time 0 days), with bacterial inoculum [1] (Time 1 days), in the series with bacterial inoculum [1] (Time 2 days), with bacterial inoculum [1] (Time 6 days), with bacterial inoculum [1] (Time 7 days) and in the series on bacterial inoculum [1] (Time 9 days) was “−” throughout. In addition, the “Growth, nitrogen compound control” value in the series on bacterial inoculum [1] (Time 13 days) and with bacterial inoculum [1] (Time 20 days) was “−” in each case. Also, the “Growth, Neutralization of Biocides with Nitrogen Compounds” value (shortened to “Growth, Neutralization of Biocides”) in the series on bacterial inoculum [1] (Time 0 days), with bacterial inoculum [1] (Time 1 days), in the series on bacterial inoculum [1] (Time 2 days), in the series on bacterial inoculum [1] (Time 6 days), in the series on bacterial inoculum [1] (Time 7 days) and in the series on bacterial inoculum [1] (Time 9 days) was “−” throughout. For the same compound, the “Growth, Neutralization of Biocides” value in the series with bacterial inoculum [1] (Time 13 days) and in the series on bacterial inoculum [1] (Time 20 days) was “−” throughout.

In series [2], `NCCO` [MEA, Monoethanolamine] returned an LOEC of 1700 mg/L. For the same compound, the NOEC in series [2] came out at 1000 mg/L. Besides, the 50% lethal concentration (LC50) at 96 h in “in vivo” turned out to be 1500 µg/mL (≈ 24.6 mM). Also, the “Growth, nitrogen compound control” value in the series on bacterial inoculum [1] (Time 0 days) is recorded as “−”; with bacterial inoculum [1] (Time 1 days), “−”; with bacterial inoculum [1] (Time 2 days) it was “−”; in the series with bacterial inoculum [1] (Time 6 days), “−”; in the series with bacterial inoculum [1] (Time 7 days) it was “+”; in the series on bacterial inoculum [1] (Time 9 days), “+”. In addition, the “Growth, nitrogen compound control” value with bacterial inoculum [1] (Time 13 days) and in the series on bacterial inoculum [1] (Time 20 days) was “+” each time. For the same compound, the “neutralizing 10 ppm of glutaraldehyde” value in the series with bacterial inoculum [1] is given as “effective”. In addition, the “Growth, Neutralization of Biocides” value with bacterial inoculum [1] (Time 0 days) is reported as “−”; in the series on bacterial inoculum [1] (Time 1 days), “−”; with bacterial inoculum [1] (Time 2 days) it was “−”; in the series with bacterial inoculum [1] (Time 6 days), “+”; in the series with bacterial inoculum [1] (Time 7 days), “+”; in the series on bacterial inoculum [1] (Time 9 days) it was “+”. For the same compound, the “Growth, Neutralization of Biocides” value in the series on bacterial inoculum [1] (Time 13 days) and in the series with bacterial inoculum [1] (Time 20 days) was “+” throughout.

For the compound `C#CCO` [P, Propargyl alcohol], the “Growth, Test Results on Fischer-Tropsch Diesel Fuel” value in the series with bacterial inoculum [3] (setting [4]), in the series with bacterial inoculum [3] (setting [5]), with bacterial inoculum [3] (setting [6]), in the series with bacterial inoculum [3] (setting [7]), with bacterial inoculum [3] (setting [8]) and in the series on bacterial inoculum [3] (setting [9]) was “−” in each case. Also, the “Growth, Test Results on Fischer-Tropsch Diesel Fuel” value is recorded as “−” with bacterial inoculum [3] (setting [10]); “−” in the series on bacterial inoculum [3] (setting [11]); “−” in the series with bacterial inoculum [3] (setting [12]); “+” in the series on bacterial inoculum [3] (setting [13]); “+” in the series with bacterial inoculum [3] (setting [14]); “+” with bacterial inoculum [3] (setting [15]). Also, the “Growth, Test Results on ALAD Diesel Fuel” value with bacterial inoculum [3] (setting [16]), with bacterial inoculum [3] (setting [17]), in the series with bacterial inoculum [3] (setting [18]), with bacterial inoculum [3] (setting [19]), in the series on bacterial inoculum [3] (setting [20]) and with bacterial inoculum [3] (setting [21]) was “−” throughout. Also, the “Growth, Test Results on ALAD Diesel Fuel” value in the series with bacterial inoculum [3] (setting [22]) was “−”; in the series on bacterial inoculum [3] (setting [23]), “−”; with bacterial inoculum [3] (setting [24]), “+ Yellow”; in the series on bacterial inoculum [3] (setting [25]), “+ Yellow”; with bacterial inoculum [3] (setting [26]), “+ Yellow”; in the series on bacterial inoculum [3] (setting [27]), “+ Yellow”.

With `CCNCC` [diethylamine, Diethylamine], the “Growth, nitrogen compound control” value is recorded as “−” in the series with bacterial inoculum [1] (Time 0 days); “−” in the series with bacterial inoculum [1] (Time 1 days); “−” with bacterial inoculum [1] (Time 2 days); “+” with bacterial inoculum [1] (Time 6 days); “+” with bacterial inoculum [1] (Time 7 days); “+” in the series on bacterial inoculum [1] (Time 9 days). Also, the “Growth, nitrogen compound control” value in the series on bacterial inoculum [1] (Time 13 days) and with bacterial inoculum [1] (Time 20 days) was “+” throughout. The “neutralizing 10 ppm of glutaraldehyde” value in the series with bacterial inoculum [1] is on record as “effective”. Besides, the “Growth, Neutralization of Biocides” value in the series with bacterial inoculum [1] (Time 0 days) is reported as “−”; in the series on bacterial inoculum [1] (Time 1 days) it was “−”; in the series on bacterial inoculum [1] (Time 2 days), “−”; with bacterial inoculum [1] (Time 6 days), “+”; in the series on bacterial inoculum [1] (Time 7 days) it was “+”; in the series with bacterial inoculum [1] (Time 9 days) it was “+”. Besides, the “Growth, Neutralization of Biocides” value in the series on bacterial inoculum [1] (Time 13 days) and in the series on bacterial inoculum [1] (Time 20 days) was “+” throughout.

`OCCNCCO` [DEA, Diethanolamine]: the “Growth, nitrogen compound control” value in the series with bacterial inoculum [1] (Time 0 days) is listed as “−”; in the series with bacterial inoculum [1] (Time 1 days) it was “−”; in the series on bacterial inoculum [1] (Time 2 days) it was “−”; in the series on bacterial inoculum [1] (Time 6 days), “+”; in the series on bacterial inoculum [1] (Time 7 days), “+”; in the series on bacterial inoculum [1] (Time 9 days), “+”. For the same compound, the “Growth, nitrogen compound control” value in the series with bacterial inoculum [1] (Time 13 days) is “+”; in the series on bacterial inoculum [1] (Time 20 days), “−”. Further, in the series with bacterial inoculum [1], the “neutralizing 10 ppm of glutaraldehyde” value is recorded as “effective”. In addition, the “Growth, Neutralization of Biocides” value is listed as “−” in the series on bacterial inoculum [1] (Time 0 days); “+” in the series with bacterial inoculum [1] (Time 1 days); “+” with bacterial inoculum [1] (Time 2 days); “+” with bacterial inoculum [1] (Time 6 days); “+” in the series on bacterial inoculum [1] (Time 7 days); “+” in the series on bacterial inoculum [1] (Time 9 days). Also, the “Growth, Neutralization of Biocides” value with bacterial inoculum [1] (Time 13 days) and in the series with bacterial inoculum [1] (Time 20 days) was “+” each time.

Turning to `OO` [H2O2], in the series on bacteria, the microbial growth result is given as “no growth” and the “neutralizing biocides (glutaraldehyde)” value is listed as “not effective”.

As to `C#CCCCC` [H, 1-hexyne], the “Growth, Test Results on Fischer-Tropsch Diesel Fuel” value in the series with bacterial inoculum [3] (setting [4]), in the series with bacterial inoculum [3] (setting [5]), in the series with bacterial inoculum [3] (setting [6]), in the series on bacterial inoculum [3] (setting [7]), in the series on bacterial inoculum [3] (setting [8]) and in the series with bacterial inoculum [3] (setting [9]) was “−” in each case. For the same compound, the “Growth, Test Results on Fischer-Tropsch Diesel Fuel” value is on record as “−” in the series with bacterial inoculum [3] (setting [10]); “−” in the series with bacterial inoculum [3] (setting [11]); “+” in the series with bacterial inoculum [3] (setting [12]); “+” in the series with bacterial inoculum [3] (setting [13]); “+” in the series on bacterial inoculum [3] (setting [14]); “+” with bacterial inoculum [3] (setting [15]). Also, the “Growth, Test Results on ALAD Diesel Fuel” value in the series with bacterial inoculum [3] (setting [16]), in the series with bacterial inoculum [3] (setting [17]), with bacterial inoculum [3] (setting [18]), in the series with bacterial inoculum [3] (setting [19]), in the series on bacterial inoculum [3] (setting [20]) and in the series on bacterial inoculum [3] (setting [21]) was “−” throughout. Moreover, the “Growth, Test Results on ALAD Diesel Fuel” value in the series with bacterial inoculum [3] (setting [22]) was “−”; in the series with bacterial inoculum [3] (setting [23]) it was “−”; with bacterial inoculum [3] (setting [24]), “+”; in the series with bacterial inoculum [3] (setting [25]), “+”; with bacterial inoculum [3] (setting [26]), “+”; in the series on bacterial inoculum [3] (setting [27]), “+”.
